# Results reported in US9930892B2, “Molecules having pesticidal utility, and intermediates, compositions, and processes, related thereto” (Dow AgroSciences LLC, priority 2016, dated 2018).
# Assays:
# [1] = system: Beet Armyworm (Spodoptera exigua); assay: Bioassay on Beet Armyworm (BAW), 128-well diet tray assay; assay type: in vivo; conditions: for BAW % Control (or Mortality) rating: 50 μg/cm^2 on artificial diet, second instar larvae, five to seven days, 25° C.; for mortality at 0.05 µg/cm2 / mortality at 0.5 µg/cm2 / mortality at 5 µg/cm2: Spodoptera exigua, read-out: BAW Percent control (or mortality); for mortality at 0.05 µg/cm2: 0.05 μg/cm^2; for mortality at 0.5 µg/cm2: 0.5 μg/cm^2; for mortality at 5 µg/cm2: 5 μg/cm^2
# Description: Bioassays on BAW were conducted using a 128-well diet tray assay. One to five second instar BAW larvae were placed in each well (3 mL) of the diet tray that had been previously filled with 1 mL of artificial diet to which 50 μg/cm^2 of the test molecule (dissolved in 50 μL of 90:10 acetone-water mixture) had been applied (to each of eight wells) and then allowed to dry. Trays were covered with a clear self-adhesive cover and held at 25° C., 14:10 light-dark for five to seven days. Percent mortality was recorded for the larvae in each well; activity in the eight wells was then averaged. The results are indicated in the table entitled “Table ABC: Biological Results” (See Table Section).
# (§1) Bioassays on BAW and CL were conducted according to the procedures outlined in Example A: Bioassays on Beet Armyworm (“BAW”) and Cabbage Looper (“CL”) using the indicated concentrations.
# [2] = system: Cabbage Looper (Trichoplusia ni); assay: Bioassay on Cabbage Looper (CL), 128-well diet tray assay; assay type: in vivo; conditions: for CL % Control (or Mortality) rating: 50 μg/cm^2 on artificial diet, second instar larvae, five to seven days, 25° C.; for mortality at 0.05 µg/cm2 / mortality at 0.5 µg/cm2 / mortality at 5 µg/cm2: Trichoplusia ni, read-out: CL Percent control (or mortality); for mortality at 0.05 µg/cm2: 0.05 μg/cm^2; for mortality at 0.5 µg/cm2: 0.5 μg/cm^2; for mortality at 5 µg/cm2: 5 μg/cm^2
# Description: Bioassays on CL were conducted using a 128-well diet tray assay. One to five second instar CL larvae were placed in each well (3 mL) of the diet tray that had been previously filled with 1 mL of artificial diet to which 50 μg/cm^2 of the test molecule (dissolved in 50 μL of 90:10 acetone-water mixture) had been applied (to each of eight wells) and then allowed to dry. Trays were covered with a clear self-adhesive cover and held at 25° C., 14:10 light-dark for five to seven days. Percent mortality was recorded for the larvae in each well; activity in the eight wells was then averaged. The results are indicated in the table entitled “Table ABC: Biological Results” (See Table Section).
# as §1
Compound,BAW % Control (or Mortality) rating [1],CL % Control (or Mortality) rating [2],further results
"CN(NC(=O)c1ccc(/C(F)=C/C(c2cc(Cl)c(Cl)c(Cl)c2)C(F)(F)F)cc1C(F)(F)F)C(=O)NCC(F)(F)F (centres unmarked) [F1, (Z)-1-methyl-2-(4-(1,4,4,4-tetrafluoro-3-(3,4,5-trichlorophenyl)but-1-en-1-yl)-2-(trifluoromethyl)benzoyl)-N-(2,2,2-trifluoroethyl)hydrazinecarboxamide]",A (50-100),A (50-100),mortality at 0.05 µg/cm2 [1]: 100%; mortality at 0.5 µg/cm2 [1]: 100%; mortality at 5 µg/cm2 [1]: 100%; mortality at 0.05 µg/cm2 [2]: 100%; mortality at 0.5 µg/cm2 [2]: 100%; mortality at 5 µg/cm2 [2]: 100%
"O=C(NCC(F)(F)F)NNC(=O)c1ccc(/C(F)=C/C(c2cc(Cl)c(Cl)c(Cl)c2)C(F)(F)F)cc1Br (centres unmarked) [F2, (Z)-2-(2-bromo-4-(1,4,4,4-tetrafluoro-3-(3,4,5-trichlorophenyl)but-1-en-1-yl)benzoyl)-N-(2,2,2-trifluoroethyl)hydrazinecarboxamide]",A (50-100),A (50-100),
"O=C(NCC(F)(F)F)NNC(=O)c1ccc(/C(F)=C/C(c2cc(Cl)c(Cl)c(Cl)c2)C(F)(F)F)cc1C(F)(F)F (centres unmarked) [F3, (Z)-2-(4-(1,4,4,4-Tetrafluoro-3-(3,4,5-trichlorophenyl)but-1-en-1-yl)-2-(trifluoromethyl)benzoyl)-N-(2,2,2-trifluoroethyl)hydrazinecarboxamide]",A (50-100),A (50-100),
"O=C(CCC(F)(F)F)NNC(=O)c1ccc(/C(F)=C/C(c2cc(Cl)c(Cl)c(Cl)c2)C(F)(F)F)cc1C(F)(F)F (centres unmarked) [F4, (Z)-4-(1,4,4,4-Tetrafluoro-3-(3,4,5-trichlorophenyl)but-1-en-1-yl)-N′-(4,4,4-trifluorobutanoyl)-2-(trifluoromethyl)benzohydrazide]",A (50-100),A (50-100),
"CN(NC(=O)c1ccc(/C(F)=C/C(c2cc(Cl)c(Cl)c(Cl)c2)C(F)(F)F)cc1C(F)(F)F)C(=O)CCC(F)(F)F (centres unmarked) [F11, (Z)—N′-Methyl-4-(1,4,4,4-tetrafluoro-3-(3,4,5-trichlorophenyl)but-1-en-1-yl)-N′-(4,4,4-trifluorobutanoyl)-2-(trifluoromethyl)benzohydrazide]",A (50-100),A (50-100),
"CC(F)(F)C(/C=C(\F)c1ccc(C(=O)NNC(=O)NCC(F)(F)F)c(C(F)(F)F)c1)c1cc(Cl)c(Cl)c(Cl)c1 (centres unmarked) [F12, (Z)-2-(4-(1,4,4-Trifluoro-3-(3,4,5-trichlorophenyl)pent-1-en-1-yl)-2-(trifluoromethyl)benzoyl)-N-(2,2,2-trifluoroethyl)hydrazinecarboxamide]",A (50-100),A (50-100),
"CN(NC(=O)CCC(F)(F)F)C(=O)c1ccc(/C(F)=C/C(c2cc(Cl)c(Cl)c(Cl)c2)C(F)(F)F)cc1C(F)(F)F (centres unmarked) [F13, (Z)—N-methyl-4-(1,4,4,4-tetrafluoro-3-(3,4,5-trichlorophenyl)but-1-en-1-yl)-N′-(4,4,4-trifluorobutanoyl)-2-(trifluoromethyl)benzohydrazide]",A (50-100),A (50-100),
"C=Cc1c(Cl)cc(C(/C=C(\F)c2ccc(C(=O)NN(C)C(=O)NCC(F)(F)F)c(C(F)(F)F)c2)C(F)(F)F)cc1Cl (centres unmarked) [F17, (Z)-2-(4-(3-(3,5-Dichloro-4-vinylphenyl)-1,4,4,4-tetrafluorobut-1-en-1-yl)-2-(trifluoromethyl)benzoyl)-1-methyl-N-(2,2,2-trifluoroethyl)hydrazinecarboxamide]",A (50-100),A (50-100),
"CN(NC(=O)c1ccc(/C(F)=C/C(c2cc(Br)c(Cl)c(Br)c2)C(F)(F)F)cc1C(F)(F)F)C(=O)NCC(F)(F)F (centres unmarked) [F18, (Z)-2-(4-(3-(3,5-Dibromo-4-chlorophenyl)-1,4,4,4-tetrafluorobut-1-en-1-yl)-2-(trifluoromethyl)benzoyl)-1-methyl-N-(2,2,2-trifluoroethyl)hydrazinecarboxamide]",A (50-100),A (50-100),
"CN(NC(=O)c1ccc(/C(F)=C/C(c2cc(Cl)c(Cl)c(Cl)c2)C(F)(F)F)cc1C(F)(F)F)S(=O)(=O)CCC(F)(F)F (centres unmarked) [F19, (Z)-3,3,3-trifluoro-N-methyl-N′-(4-(1,4,4,4-tetrafluoro-3-(3,4,5-trichlorophenyl)but-1-en-1-yl)-2-(trifluoromethyl)benzoyl)propane-1-sulfonohydrazide]",A (50-100),A (50-100),
"O=C(CCC(F)(F)F)NNC(=O)c1ccc(/C(F)=C/C(c2cc(Cl)c(Cl)c(Cl)c2)C(F)(F)F)cc1Cl (centres unmarked) [F20, (Z)-2-Chloro-4-(1,4,4,4-tetrafluoro-3-(3,4,5-trichlorophenyl)but-1-en-1-yl)-N′-(4,4,4-trifluorobutanoyl)benzohydrazide]",A (50-100),A (50-100),
"O=C(CCC(F)(F)F)NNC(=O)c1ccc(/C(F)=C/C(c2cc(Cl)c(Cl)c(Cl)c2)C(F)(F)F)cc1I (centres unmarked) [F21, (Z)-2-Iodo-4-(1,4,4,4-tetrafluoro-3-(3,4,5-trichlorophenyl)but-1-en-1-yl)-N′-(4,4,4-trifluorobutanoyl)benzohydrazide]",A (50-100),A (50-100),
"CN(NC(=O)c1ccc(/C(F)=C/C(c2cc(Cl)c(Br)c(Cl)c2)C(F)(F)F)cc1C(F)(F)F)C(=O)NCC(F)(F)F (centres unmarked) [F23, (Z)-2-(4-(3-(4-Bromo-3,5-dichlorophenyl)-1,4,4,4-tetratfluorobut-1-en-1-yl)-2-(trifluoromethyl)benzoyl)-1-methyl-N-(2,2,2-trifluoroethyl)hydrazinecarboxamide]",A (50-100),A (50-100),
"O=C(NNS(=O)(=O)CCC(F)(F)F)c1ccc(/C(F)=C/C(c2cc(Cl)c(Cl)c(Cl)c2)C(F)(F)F)cc1C(F)(F)F (centres unmarked) [F24, (Z)-3,3,3-Trifluoro-N′-(4-(1,4,4,4-tetrafluoro-3-(3,4,5-trichlorophenyl)but-1-en-1-yl)-2-(trifluoromethyl)benzoyl)propane-1-sulfonohydrazide]",A (50-100),A (50-100),
"Cc1cc(/C(F)=C/C(c2cc(Cl)c(Cl)c(Cl)c2)C(F)(F)F)ccc1C(=O)NN(C)C(=O)NCC(F)(F)F (centres unmarked) [F28, (Z)-1-Methyl-2-(2-methyl-4-(1,4,4,4-tetrafluoro-3-(3,4,5-trichlorophenyl)but-1-en-1-yl)benzoyl)-N-(2,2,2-trifluoroethyl)hydrazinecarboxamide]",,,mortality at 0.05 µg/cm2 [1]: 88%; mortality at 0.5 µg/cm2 [1]: 100%; mortality at 5 µg/cm2 [1]: 100%; mortality at 0.05 µg/cm2 [2]: 100%; mortality at 0.5 µg/cm2 [2]: 100%; mortality at 5 µg/cm2 [2]: 100%
"CC(C)(C)C(=O)NNC(=O)c1ccc(/C(F)=C/C(c2cc(Cl)c(Cl)c(Cl)c2)C(F)(F)F)cc1C(F)(F)F (centres unmarked) [F29, (Z)—N′-Pivaloyl-4-(1,4,4,4-tetrafluoro-3-(3,4,5-trichlorophenyl)but-1-en-1-yl)-2-(trifluoromethyl)benzohydrazide]",A (50-100),A (50-100),
"CN(NC(=O)c1ccc(/C(F)=C/C(c2cc(Cl)c(Cl)c(Cl)c2)C(F)(F)F)cc1)C(=O)NCC(F)(F)F (centres unmarked) [FC1, (Z)-1-methyl-2-(4-(1,4,4,4-tetrafluoro-3-(3,4,5-trichlorophenyl)but-1-en-1-yl)benzoyl)-N-(2,2,2-trifluoroethyl)hydrazinecarboxamide, reference compound]",,,mortality at 0.05 µg/cm2 [1]: 0%; mortality at 0.5 µg/cm2 [1]: 0%; mortality at 5 µg/cm2 [1]: 25%; mortality at 0.05 µg/cm2 [2]: 0%; mortality at 0.5 µg/cm2 [2]: 0%; mortality at 5 µg/cm2 [2]: 7%
"CN(NC(=O)c1ccc(/C(F)=C/C(c2cc(Cl)c(Cl)c(Cl)c2)C(F)(F)F)c2ccccc12)C(=O)NCC(F)(F)F (centres unmarked) [PF1, (Z)-1-Methyl-2-(4-(1,4,4,4-tetrafluoro-3-(3,4,5-trichlorophenyl)but-1-en-1-yl)-1-naphthoyl)-N-(2,2,2-trifluoroethyl)hydrazine-1-carboxamide]",A (50-100),A (50-100),
